Assay [1] deals with T1, SARS-CoV-2 PLpro (nsp3 1564–1878) (Severe acute respiratory syndrome coronavirus 2, UniProt P0DTD1). Nature of the assay: biochemical. The note with it: low concentration screen, read-out: % of control remaining. The arrangement: FRET-quenched peptide (Pro3) cleavage by PLpro, 10 min pre-incubation, slope over 20 min, normalised to no-compound control.
Protocol: The plates were organized with columns 3–22 containing the compounds; the remaining columns were used for reaction controls including substrate only and substrate with enzyme but no compound (Figure 3Aii). The PLpro enzyme was pre-incubated with the compounds for 10 min, and then the reaction was initiated by the addition of substrate. […] We incubated the inhibitors with PLpro before the enzymatic reaction so that the slow-binding inhibitors will not be missed out [21]. […] Fluorescence was read on a Spark multimode microplate reader (Tecan) with an excitation wavelength at 330 nm and emission wavelength at 420 nm. […] An amount of 5 µl of the enzyme was pre-incubated with compounds for 10 min before the addition of 15 µl substrate. Fluorescence was monitored at 2 min for 20 min with 3 min intervals giving a total of seven readings.
The target in assay [2] is T1, SARS-CoV-2 PLpro (nsp3 1564–1878). Nature of the assay: biochemical. The arrangement: FRET-quenched peptide (Pro3) cleavage by PLpro, 10 min pre-incubation, slope over 20 min, normalised to no-compound control. The note with it: high concentration screen, read-out: % of control remaining.

Where a name gives a salt, the structure may show the parent alone. Read-outs that look alike come from different tables or passages of the source.

Experimental findings from PMC8286840, “Identifying SARS-CoV-2 antiviral compounds by screening for small molecule inhibitors of Nsp3 papain-like protease” (Biochemical Journal, 2021) are described below.

For the compound `Cc1cc(-n2c(=O)[nH]c(=O)n(C)c2=O)ccc1Oc1ccc(SC(F)(F)F)cc1` [Toltrazuril], the remaining activity at 1.25 µM in assay [1] (Well no.=4692) is 110%. The remaining activity at 3.75 µM in assay [2] (Well no.=4692) was found to be 102%.
Take `Cc1ccccc1C(=O)Nc1ccc(C(=O)N2CCCC(O)c3cc(Cl)ccc32)c(C)c1` (stereo not shown) [Tolvaptan]: the remaining activity at 1.25 µM in assay [1] (Well no.=7517) came out at 102%; in assay [1] (Well no.=8388), 97.7%. Further, the figures for the remaining activity at 3.75 µM in assay [2] (Well no.=7517) and in assay [2] (Well no.=8388) were 95.6% and 97.5%, respectively.
For `C[C@H]1CC[C@]2(NC1)O[C@H]1C[C@H]3[C@@H]4CC[C@H]5C[C@@H](O)CC[C@]5(C)[C@H]4CC[C@]3(C)[C@H]1[C@@H]2C` [Tomatidine], in assay [1] (Well no.=3186), the remaining activity at 1.25 µM stood at 94.5%. The remaining activity at 3.75 µM in assay [2] (Well no.=3186) turned out to be 99.4%.
As for `CNCC[C@@H](Oc1ccccc1C)c1ccccc1` [Tomoxetine], in assay [1] (Well no.=1182), the remaining activity at 1.25 µM turned out to be 99.4%. For the same compound, in assay [2] (Well no.=1182), the remaining activity at 3.75 µM turned out to be 95.7%.
With `CC(=O)c1ccc2c(c1)[C@H](NC(=O)c1ccc(F)c(Cl)c1)[C@H](O)C(C)(C)O2` [Tonabersat], the remaining activity at 1.25 µM in assay [1] (Well no.=5960) is 92.7%. Also, the remaining activity at 3.75 µM in assay [2] (Well no.=5960) is 94.8%.
`CC1(C)O[C@@H]2[C@@H](CO[C@@]3(COS(N)(=O)=O)OC(C)(C)O[C@@H]23)O1` [Topiramate]: the remaining activity at 1.25 µM in assay [1] (Well no.=4853) is 101%; in assay [1] (Well no.=7527) it was 102%. For the same compound, the values for the remaining activity at 3.75 µM in assay [2] (Well no.=4853) and in assay [2] (Well no.=7527) were 104% and 100%, respectively.
For the compound `N#Cc1cc(-c2n[nH]c(-c3ccncc3)n2)ccn1` [Topiroxostat], the remaining activity at 1.25 µM in assay [1] (Well no.=8440) stood at 96.2%. In assay [2] (Well no.=8440), the remaining activity at 3.75 µM worked out at 97.1%.
In the case of `CC[C@@]1(O)C(=O)OCc2c1cc1n(c2=O)Cc2cc3c(CN(C)C)c(O)ccc3nc2-1` [Topotecan hydrochloride hydrate], the remaining activity at 1.25 µM in assay [1] (Well no.=6019) came to 103%. In addition, the remaining activity at 3.75 µM in assay [2] (Well no.=6019) was 99%.
On to `CC[C@@]1(O)C(=O)OCc2c1cc1n(c2=O)Cc2cc3c(CN(C)C)c(O)ccc3nc2-1` [Topotecan.HCl], for which the remaining activity at 1.25 µM in assay [1] (Well no.=1964) turned out to be 98.5%. Also, the remaining activity at 3.75 µM in assay [2] (Well no.=1964) was determined as 97.5%.
`CCOC(=O)N1c2ccc(C(F)(F)F)cc2[C@@H](N(Cc2cc(C(F)(F)F)cc(C(F)(F)F)c2)C(=O)OC)C[C@H]1CC` [Torcetrapib (CP-529414)]: the remaining activity at 1.25 µM in assay [1] (Well no.=4749) is 95.8%. Also, the remaining activity at 3.75 µM in assay [2] (Well no.=4749) came out at 98.1%.
As for `CN(C)CCOc1ccc(/C(=C(/CCCl)c2ccccc2)c2ccccc2)cc1` [Toremifene], in assay [1] (Well no.=1966), the remaining activity at 1.25 µM came to 104%. The remaining activity at 3.75 µM in assay [2] (Well no.=1966) stood at 102%.
On to `CCC(=O)N1CCN(c2ccc(-n3c(=O)ccc4cnc5ccc(-c6cnc7ccccc7c6)cc5c43)cc2C(F)(F)F)CC1` [Torin 1], for which the remaining activity at 1.25 µM in assay [1] (Well no.=4795) was found to be 106%. In addition, the remaining activity at 3.75 µM in assay [2] (Well no.=4795) turned out to be 102%.
Regarding `Nc1ccc(-c2ccc3ncc4ccc(=O)n(-c5cccc(C(F)(F)F)c5)c4c3c2)cn1` [Torin 2], in assay [1] (Well no.=4787), the remaining activity at 1.25 µM amounted to 95.6%. Moreover, the remaining activity at 3.75 µM in assay [2] (Well no.=4787) was determined as 97.9%.
With `CC(C)C[C@@H](C(=O)N[C@H](C(=O)OC1CCCC1)c1ccccc1)[C@H](O)C(=O)NO` [Tosedostat (CHR2797)], in assay [1] (Well no.=4880), the remaining activity at 1.25 µM was 93.4%. In addition, the remaining activity at 3.75 µM in assay [2] (Well no.=4880) is 88.9%.
Take `NC1CCN(c2nc3c(cc2F)c(=O)c(C(=O)O)cn3-c2ccc(F)cc2F)C1` (stereo not shown) [Tosufloxacin]: the remaining activity at 1.25 µM in assay [1] (Well no.=1962) was 98.1%. The remaining activity at 3.75 µM in assay [2] (Well no.=1962) amounted to 93.3%.
As to `COc1ccc(N2CCOCC2)c2sc(NC(=O)N3CCC(C)(O)CC3)nc12` [Tozadenant], the remaining activity at 1.25 µM in assay [1] (Well no.=7049) was determined as 103%; in assay [1] (Well no.=8115), 99%. For the same compound, the remaining activity at 3.75 µM was found to be 100% in assay [2] (Well no.=7049) and 102% in assay [2] (Well no.=8115).
As to `Cc1cc(Nc2cc(N3CCN(C)CC3)nc(Sc3ccc(NC(=O)C4CC4)cc3)n2)n[nH]1` [Tozasertib], the remaining activity at 1.25 µM in assay [1] (Well no.=2895) was 101%. Besides, the remaining activity at 3.75 µM in assay [2] (Well no.=2895) came to 103%.
